According to publication PMC4352019, “Bioactivity-Guided Fractionation of an Antidiarrheal Chinese Herb Rhodiola kirilowii (Regel) Maxim Reveals (-)–Epicatechin-3-Gallate and (-)–Epigallocatechin-3-Gallate as Inhibitors of Cystic Fibrosis Transmembrane Conductance Regulator” (PLoS ONE, 2015):

Target: T1, Cystic fibrosis transmembrane conductance regulator (CFTR) (Homo sapiens, UniProt P13569)
T1 construct: human wild-type CFTR stably expressed in FRT cells
Test: YFP-H148Q iodide influx fluorescence assay in CFTR-expressing FRT cells; supported by short-circuit current in rat colonic mucosa
Format: cell-based

T1 sequence (P13569 whole entry): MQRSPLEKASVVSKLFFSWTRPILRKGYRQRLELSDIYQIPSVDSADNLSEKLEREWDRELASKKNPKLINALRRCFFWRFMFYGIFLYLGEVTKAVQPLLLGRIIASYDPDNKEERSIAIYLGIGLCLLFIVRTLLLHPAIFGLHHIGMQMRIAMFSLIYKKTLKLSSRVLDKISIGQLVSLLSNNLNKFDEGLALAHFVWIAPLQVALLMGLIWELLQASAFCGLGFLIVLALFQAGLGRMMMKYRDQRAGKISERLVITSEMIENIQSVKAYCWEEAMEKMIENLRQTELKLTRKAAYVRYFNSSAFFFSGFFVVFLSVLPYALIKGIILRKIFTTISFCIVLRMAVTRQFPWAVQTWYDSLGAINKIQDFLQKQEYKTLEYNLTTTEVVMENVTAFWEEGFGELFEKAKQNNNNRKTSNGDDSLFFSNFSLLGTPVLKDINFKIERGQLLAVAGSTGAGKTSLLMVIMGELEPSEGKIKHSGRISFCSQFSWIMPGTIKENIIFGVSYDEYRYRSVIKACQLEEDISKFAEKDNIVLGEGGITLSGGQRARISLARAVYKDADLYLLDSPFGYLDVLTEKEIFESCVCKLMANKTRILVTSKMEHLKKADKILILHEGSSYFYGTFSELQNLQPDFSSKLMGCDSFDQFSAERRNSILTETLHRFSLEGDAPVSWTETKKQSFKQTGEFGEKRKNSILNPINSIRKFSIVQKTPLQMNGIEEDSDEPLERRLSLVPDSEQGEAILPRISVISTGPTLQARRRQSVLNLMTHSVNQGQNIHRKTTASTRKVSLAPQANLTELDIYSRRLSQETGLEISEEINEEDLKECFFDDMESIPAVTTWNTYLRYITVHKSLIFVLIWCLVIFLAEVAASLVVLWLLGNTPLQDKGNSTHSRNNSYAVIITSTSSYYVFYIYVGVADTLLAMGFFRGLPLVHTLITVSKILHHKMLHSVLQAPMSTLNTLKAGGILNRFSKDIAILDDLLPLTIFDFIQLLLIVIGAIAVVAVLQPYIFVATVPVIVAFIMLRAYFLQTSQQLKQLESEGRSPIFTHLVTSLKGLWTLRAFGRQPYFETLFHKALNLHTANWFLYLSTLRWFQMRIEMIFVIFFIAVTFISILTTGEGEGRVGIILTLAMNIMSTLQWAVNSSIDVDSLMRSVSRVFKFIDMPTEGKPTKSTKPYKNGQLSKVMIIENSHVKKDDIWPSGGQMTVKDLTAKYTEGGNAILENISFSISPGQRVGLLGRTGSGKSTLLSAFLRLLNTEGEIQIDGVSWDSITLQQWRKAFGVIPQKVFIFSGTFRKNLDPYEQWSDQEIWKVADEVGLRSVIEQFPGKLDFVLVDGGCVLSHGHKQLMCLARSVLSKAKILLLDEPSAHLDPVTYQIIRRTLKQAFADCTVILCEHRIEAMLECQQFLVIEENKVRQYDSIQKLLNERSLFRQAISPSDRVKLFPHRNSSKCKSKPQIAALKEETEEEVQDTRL

SMILES: O=C(O[C@@H]1Cc2c(O)cc(O)cc2O[C@@H]1c1cc(O)c(O)c(O)c1)c1cc(O)c(O)c(O)c1 [C2, (-)–epigallocatechin-3-gallate]
- IC50: ~100 µM
